Each structure is given as a SMILES string. Counter-ions that a name gives are not always drawn.

This experiment relates to SJSA, an osteocarcinoma cell line. In words: antiproliferative activity assay (tetrazolium dye, MTT) in SJSA cells. Conditions: cell-based MTT assay, inhibition of cell proliferation, read-out: TT IC50. The protocol:
The pharmacological properties of the compounds of this invention may be confirmed by a number of pharmacological assays. The exemplified antiproliferative activity assay which follows has been carried out with the compounds according to the invention.
Cell proliferation was evaluated by the tetrazolium dye assay according to the procedure of Denizot and Lang (Denizot, F. and Lang, R. (1986) Rapid colorimetric assay for cell growth and survival. Modification to the terrazolium dye procedure giving improved sensitivity and reliability. J. Immunol. Methods 89, 271-277). The cell line used was SJSA, an osteocarcinoma cell line obtained from the American Type Cell Culture Collection (ATCC; Rockville, Md.). The cells were grown in PRMI with 10% FBS (Fetal Bovine Serum, Invitrogen).
Cells were plated at the appropriate seeding density to give logarithmic growth over the course of the assay in a 96-well tissue culture plate. Plates were incubated overnight at 37° C. in a humidified incubator with 5% CO2. The next day, test compounds were serially diluted 1:3 in the appropriate medium containing 3% DMSO. One-tenth final volume of each dilution was added […] to the plates containing cells. The same volume of 3% DMSO in medium was added to a row of control wells. Thus, the final concentration of DMSO in all wells was 0.3%. The plates were returned to the incubator, and at set time points (determined by their growth curves) plates were analyzed as follows: 3-(4,5-dimethylthiazole-2-yl)-2,5-diphenyl-2H-tetrazolium bromide (thiazolyl blue; MTT; Sigma) was added to each well to yield a final concentration of 1 mg/ml. Plates were returned to the incubator for 2.5 hours. The MTT-containing medium was removed and the resulting formazan metabolite was solubilized in 100% ethanol with shaking for 15 minutes at room temperature. Absorbances were read in a microtiter plate reader at a wavelength of 570 nm with a 650 nm reference. Percent inhibition (% INH) was calculated by subtracting the blank from all wells, then subtracting the ratio of the average absorbance of each triplicate (SAVE) by the average of the controls (CAVE) from 1.00. The final product was then multiplied by 100 (% INH=(1.00−SAVE/CAVE)×100). The concentration at which 50% inhibition (IC50) of cell proliferation is obtained was determined from the linear regression of a plot of the logarithm of the concentration versus percent inhibition.
In general terms: Formazan colour is commonly taken as a measure of viable cells.
As to `CCOC(=O)C1CC1CN1[C@@H](CC(C)(C)C)[C@](C#N)(c2ccc(Cl)cc2F)[C@@H](c2cccc(Cl)c2F)[C@@H]1C(=O)Nc1ccc(C(=O)OC)cc1OC` (stereo partly drawn) [Example 61, 4-{[(2R,3S,4R,5S)-3-(3-chloro-2-fluoro-phenyl)-4-(4-chloro-2-fluoro-phenyl)-4-cyano-5-(2,2-dimethyl-propyl)-1-(2-ethoxycarbonyl-cyclopropylmethyl)-pyrrolidine-2-carbonyl]-amino}-3-methoxy-benzoic acid methyl ester], the half-inhibitory concentration (IC50) came to 680 nM.

As for `CNC(=O)c1ccc(NC(=O)[C@H]2[C@H](c3cccc(Cl)c3F)[C@@](C#N)(c3ccc(Cl)cc3F)[C@H](CC(C)(C)C)N2C)c(OC)c1` (racemic) [Example 51, rac-(2R,3S,4R,5S)-3-(3-chloro-2-fluoro-phenyl)-4-(4-chloro-2-fluoro-phenyl)-4-cyano-5-(2,2-dimethyl-propyl)-1-methyl-pyrrolidine-2-carboxylic acid (2-methoxy-4-methylcarbamoyl-phenyl)-amide], the 50% inhibitory concentration (IC50) amounted to 460 nM.

Consider `COc1cc(C(=O)O)ccc1NC(=O)[C@H]1[C@H](c2cccc(Cl)c2F)[C@@](C#N)(c2ccc(Cl)cc2F)[C@H](CC(C)(C)C)N1C` (racemic) [Example 39, rac-4-{[(2R,3S,4R,5S)-3-(3-chloro-2-fluoro-phenyl)-4-(4-chloro-2-fluoro-phenyl)-4-cyano-5-(2,2-dimethyl-propyl)-1-methyl-pyrrolidine-2-carbonyl]-amino}-3-methoxy-benzoic acid], for which the half-maximal inhibitory concentration (IC50) is 40 nM.

On to `CN1[C@@H](CC(C)(C)C)[C@](C#N)(c2ccc(Cl)cc2F)[C@@H](c2cccc(Cl)c2F)[C@@H]1C(=O)Nc1ccc(C(=O)O)cc1` [Example 25, 4-{[(2R,3S,4R,5S)-3-(3-chloro-2-fluoro-phenyl)-4-(4-chloro-2-fluoro-phenyl)-4-cyano-5-(2,2-dimethyl-propyl)-1-methyl-pyrrolidine-2-carbonyl]-amino}-benzoic acid], for which the IC50 came to 390 nM.

As for `COc1cc(NC(=O)[C@H]2[C@H](c3cccc(Cl)c3F)[C@@](C#N)(c3ccc(Cl)cc3F)[C@H](CC(C)(C)C)N2CCC(C)C)ccc1C(=O)O` (racemic) [Example 45, 4-{[(2R,3S,4R,5S)-3-(3-chloro-2-fluoro-phenyl)-4-(4-chloro-2-fluoro-phenyl)-4-cyano-5-(2,2-dimethyl-propyl)-1-(3-methyl-butyl)-pyrrolidine-2-carbonyl]-amino}-2-methoxy-benzoic acid], the half-inhibitory concentration (IC50) was found to be 420 nM.

On to `CN1[C@@H](CC(C)(C)C)[C@](C#N)(c2ccc(Cl)cc2F)[C@@H](c2cccc(Cl)c2F)[C@@H]1C(=O)Nc1ncc(C(=O)O)[nH]1` [Example 55, 2-{[(2R,3S,4R,5S)-3-(3-chloro-2-fluoro-phenyl)-4-(4-chloro-2-fluoro-phenyl)-4-cyano-5-(2,2-dimethyl-propyl)-1-methyl-pyrrolidine-2-carbonyl]-amino}-3H-imidazole-4-carboxylic acid trifluoracetate salt], for which the IC50 was 4000 nM.

As to `CC(C)(C)C[C@@H]1N(CCC2CCCCC2)[C@@H](C(=O)Nc2ccc(C(=O)O)cc2)[C@H](c2cccc(Cl)c2F)[C@@]1(C#N)c1ccc(Cl)cc1F` (racemic) [Example 37, rac-4-{[(2R,3S,4R,5S)-3-(3-chloro-2-fluoro-phenyl)-4-(4-chloro-2-fluoro-phenyl)-4-cyano-1-(2-cyclohexyl-ethyl)-5-(2,2-dimethyl-propyl)-pyrrolidine-2-carbonyl]-amino}-benzoic acid], the IC50 came out at 110 nM.

Take `COc1cc(NC(=O)[C@H]2[C@H](c3cccc(Cl)c3F)[C@@](C#N)(c3ccc(Cl)cc3F)[C@H](CC(C)(C)C)N2CC2CC2)ccc1C(=O)O` [Example 38, 4-{[(2R,3S,4R,5S)-3-(3-chloro-2-fluoro-phenyl)-4-(4-chloro-2-fluoro-phenyl)-4-cyano-1-cyclopropylmethyl-5-(2,2-dimethyl-propyl)-pyrrolidine-2-carbonyl]-amino}-2-methoxy-benzoic acid]: the IC50 turned out to be 90 nM.

As to `CCN1[C@@H](CC(C)(C)C)[C@](C#N)(c2ccc(Cl)cc2F)[C@@H](c2cccc(Cl)c2F)[C@@H]1C(=O)Nc1ccc(C(=O)O)c(OC)c1` (racemic) [Example 41, 4-{[(2R,3S,4R,5S)-3-(3-chloro-2-fluoro-phenyl)-4-(4-chloro-2-fluoro-phenyl)-4-cyano-5-(2,2-dimethyl-propyl)-1-ethyl-pyrrolidine-2-carbonyl]-amino}-2-methoxy-benzoic acid], the IC50 was found to be 1230 nM.

With `CC(C)(C)C[C@@H]1N(CC2CC2)[C@@H](C(=O)Nc2ccc(C(=O)O)cc2)[C@H](c2cccc(Cl)c2F)[C@@]1(C#N)c1ccc(Cl)cc1F` (racemic) [Example 34, rac-4-{[(2R,3S,4R,5S)-3-(3-chloro-2-fluoro-phenyl)-4-(4-chloro-2-fluoro-phenyl)-4-cyano-1-cyclopropylmethyl-5-(2,2-dimethyl-propyl)-pyrrolidine-2-carbonyl]-amino}-benzoic acid], the IC50 turned out to be 300 nM.

With `COc1cc(C(N)=O)ccc1NC(=O)[C@H]1[C@H](c2cccc(Cl)c2F)[C@@](C#N)(c2ccc(Cl)cc2F)[C@H](CC(C)(C)C)N1C` (racemic) [Example 50, rac-(2R,3S,4R,5S)-3-(3-chloro-2-fluoro-phenyl)-4-(4-chloro-2-fluoro-phenyl)-4-cyano-5-(2,2-dimethyl-propyl)-1-methyl-pyrrolidine-2-carboxylic acid (4-carbamoyl-2-methoxy-phenyl)-amide], the IC50 was found to be 370 nM.

For `COc1cc(C(=O)O)ccc1NC(=O)[C@H]1[C@H](c2cccc(Cl)c2F)[C@@](C#N)(c2ccc(Cl)cc2F)[C@H](CC(C)(C)C)N1CC1CC1` (racemic) [Example 40, rac-4-{[(2R,3S,4R,5S)-3-(3-chloro-2-fluoro-phenyl)-4-(4-chloro-2-fluoro-phenyl)-4-cyano-1-cyclopropylmethyl-5-(2,2-dimethyl-propyl)-pyrrolidine-2-carbonyl]-amino}-3-methoxy-benzoic acid], the IC50 came to 130 nM.

With `COC(=O)c1nc(NC(=O)[C@H]2[C@H](c3cccc(Cl)c3F)[C@@](C#N)(c3ccc(Cl)cc3F)[C@H](CC(C)(C)C)N2C)n[nH]1` [Example 54, 5-{[(2R,3S,4R,5S)-3-(3-chloro-2-fluoro-phenyl)-4-(4-chloro-2-fluoro-phenyl)-4-cyano-5-(2,2-dimethyl-propyl)-1-methyl-pyrrolidine-2-carbonyl]-amino}-2H-[1,2,4]triazole-3-carboxylic acid methyl ester], the half-maximal inhibitory concentration (IC50) was 750 nM.

Consider `CC(C)CN1[C@@H](CC(C)(C)C)[C@](C#N)(c2ccc(Cl)cc2F)[C@@H](c2cccc(Cl)c2F)[C@@H]1C(=O)Nc1ccc(C(=O)O)cc1` [Example 32, 4-{[(2R,3S,4R,5S)-3-(3-chloro-2-fluoro-phenyl)-4-(4-chloro-2-fluoro-phenyl)-4-cyano-5-(2,2-dimethyl-propyl)-1-isobutyl-pyrrolidine-2-carbonyl]-amino}-benzoic acid], for which the IC50 was 660 nM.

As for `CN1[C@@H](CC(C)(C)C)[C@](C#N)(c2ccc(Cl)cc2F)[C@@H](c2cccc(Cl)c2F)[C@@H]1C(=O)Nc1ccn(CC(C)(C)O)n1` [Example 58, (2R,3S,4R,5S)-3-(3-chloro-2-fluoro-phenyl)-4-(4-chloro-2-fluoro-phenyl)-4-cyano-5-(2,2-dimethyl-propyl)-1-methyl-pyrrolidine-2-carboxylic acid [1-(2-hydroxy-2-methyl-propyl)-1H-pyrazol-3-yl]-amide], the IC50 stood at 3590 nM.

On to `CCN1[C@@H](CC(C)(C)C)[C@](C#N)(c2ccc(Cl)cc2F)[C@@H](c2cccc(Cl)c2F)[C@@H]1C(=O)Nc1ccc(C(=O)O)cc1OC` (racemic) [Example 44, rac-4-{[(2R,3S,4R,5S)-3-(3-chloro-2-fluoro-phenyl)-4-(4-chloro-2-fluoro-phenyl)-4-cyano-5-(2,2-dimethyl-propyl)-1-ethyl-pyrrolidine-2-carbonyl]-amino}-3-methoxy-benzoic acid], for which the half-maximal inhibitory concentration (IC50) was found to be 220 nM.

On to `COc1cc(C(=O)O)ccc1NC(=O)[C@H]1[C@H](c2cccc(Cl)c2F)[C@@](C#N)(c2ccc(Cl)cc2F)[C@H](CC(C)(C)C)N1C` [Example 31, 4-{[(2R,3S,4R,5S)-3-(3-chloro-2-fluoro-phenyl)-4-(4-chloro-2-fluoro-phenyl)-4-cyano-5-(2,2-dimethyl-propyl)-1-methyl-pyrrolidine-2-carbonyl]-amino}-3-methoxy-benzoic acid], for which the IC50 is 190 nM.

In the case of `CCCN1[C@@H](CC(C)(C)C)[C@](C#N)(c2ccc(Cl)cc2F)[C@@H](c2cccc(Cl)c2F)[C@@H]1C(=O)Nc1ccc(C(=O)O)c(OC)c1` (racemic) [Example 49, 4-{[(2R,3S,4R,5S)-3-(3-chloro-2-fluoro-phenyl)-4-(4-chloro-2-fluoro-phenyl)-4-cyano-5-(2,2-dimethyl-propyl)-1-propyl-pyrrolidine-2-carbonyl]-amino}-2-methoxy-benzoic acid], the half-maximal inhibitory concentration (IC50) came out at 1490 nM.

The IC50 is the concentration that gives 50% inhibition.
